# Experimental data: patent US11608341B2, “Substituted tetrahydropyrazolo[3,4-d]pyrimidines and tetrahydropyrazolo[4,3-d]pyrimidines as C5A receptor modulators” (Idorsia Pharmaceuticals Ltd., priority 2018, dated 2023)
# Target: T1, C5AR1 (Homo sapiens, UniProt P21730)
# T1 construct: host or cells: CHO-K1
# T1 sequence (P21730 1-350): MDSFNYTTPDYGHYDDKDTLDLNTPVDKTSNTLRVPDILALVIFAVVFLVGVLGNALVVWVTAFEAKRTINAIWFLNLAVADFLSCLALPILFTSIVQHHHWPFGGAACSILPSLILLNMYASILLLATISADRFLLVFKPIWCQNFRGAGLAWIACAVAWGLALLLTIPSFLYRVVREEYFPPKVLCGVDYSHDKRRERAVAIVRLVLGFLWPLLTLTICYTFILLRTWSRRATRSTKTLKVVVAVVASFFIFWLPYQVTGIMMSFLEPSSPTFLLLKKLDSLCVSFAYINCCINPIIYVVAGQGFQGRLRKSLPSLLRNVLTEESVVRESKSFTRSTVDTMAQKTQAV
# Experiment: In vitro assay: antagonism of C5a-induced beta-arrestin recruitment (PathHunter) in CHO-K1 C5AR1 beta-arrestin cell line
# Format: cell-based
# Settings: antagonistic activity, 1-10 nM C5a agonist, geometric mean where several measurements, read-out: C5aR IC50
# How it was run: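 Antagonist or DMSO added first, then C5a (1-10 nM, added at 6-fold end concentration), 1.5 h at 37 °C. PathHunter detection reagent was added for 45 min at RT before plate reading. IC50s come from antagonist serial dilutions in nmol/l and are geometric means of several measurements.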
row,IC50,SMILES
1,0.033 µM,COC(=O)N1CC(n2cc3c(n2)N(Cc2ccccc2C(F)(F)F)C(=O)N(C2CCN(c4c(C)cccc4F)CC2)C3)C1 [Example 117]
2,0.578 µM,Cc1cccc(F)c1N1CCC(N2Cc3cn(CC(C)(C)N)nc3N(Cc3ccccc3C(F)(F)F)C2=O)CC1 [Example 118]
3,0.296 µM,Cc1cccc(F)c1N1CCC(N2Cc3cn(C4CN(C(=O)N(C)C)C4)nc3N(Cc3ccccc3C(F)(F)F)C2=O)CC1 [Example 119]
4,1.35 µM,CNC(=O)N1CC(n2cc3c(n2)N(Cc2ccccc2C(F)(F)F)C(=O)N(C2CCN(c4c(C)cccc4F)CC2)C3)C1 [Example 120]
5,0.342 µM,Cc1cccc(F)c1N1CCC(N2Cc3cn(C[C@@H]4CCN4)nc3N(Cc3ccccc3C(F)(F)F)C2=O)CC1 [Example 122]
6,0.019 µM,COC(=O)N1CC[C@H]1Cn1cc2c(n1)N(Cc1ccccc1C(F)(F)F)C(=O)N(C1CCN(c3c(C)cccc3F)CC1)C2 [Example 123]
7,0.013 µM,CCOC(=O)N1CC[C@H]1Cn1cc2c(n1)N(Cc1ccccc1C(F)(F)F)C(=O)N(C1CCN(c3c(C)cccc3F)CC1)C2 [Example 124]
8,0.014 µM,Cc1cccc(F)c1N1CCC(N2Cc3cn(C[C@@H]4CCN4C(=O)OC(C)C)nc3N(Cc3ccccc3C(F)(F)F)C2=O)CC1 [Example 125]
9,0.015 µM,CCOC(=O)N1CC(n2cc3c(n2)N(Cc2ccccc2C(F)(F)F)C(=O)N(C2CCN(c4c(C)cccc4F)CC2)C3)C1 [Example 126]
10,0.014 µM,Cc1cccc(F)c1N1CCC(N2Cc3cn(C4CN(C(=O)OC(C)C)C4)nc3N(Cc3ccccc3C(F)(F)F)C2=O)CC1 [Example 127]
11,0.015 µM,Cc1cccc(F)c1N1CCC(N2Cc3nn(C)nc3N(Cc3ncccc3C(F)(F)F)C2=O)CC1 [Example 128]
12,0.02 µM,Cc1cccc(F)c1N1CCC(N2Cc3cn(C[C@H]4CCN4C(=O)OC(C)(C)C)nc3N(Cc3ccccc3C(F)(F)F)C2=O)CC1 [Example 129]
13,0.39 µM,Cc1cccc(F)c1N1CCC(N2Cc3cn(C[C@H]4CCN4)nc3N(Cc3ccccc3C(F)(F)F)C2=O)CC1 [Example 130]
14,0.1 µM,Cc1cccc(F)c1N1CCC(N2Cc3cn(C4CN(C(=O)C(C)C)C4)nc3N(Cc3ccccc3C(F)(F)F)C2=O)CC1 [Example 131]
15,0.008 µM,Cc1cccc(F)c1N1CCC(N2Cc3cn(C4CN(C(=O)OCC(C)C)C4)nc3N(Cc3ccccc3C(F)(F)F)C2=O)CC1 [Example 132]
16,0.022 µM,COC(=O)N1CC[C@@H]1Cn1cc2c(n1)N(Cc1ccccc1C(F)(F)F)C(=O)N(C1CCN(c3c(C)cccc3F)CC1)C2 [Example 133]
17,0.013 µM,CCOC(=O)N1CC[C@@H]1Cn1cc2c(n1)N(Cc1ccccc1C(F)(F)F)C(=O)N(C1CCN(c3c(C)cccc3F)CC1)C2 [Example 134]
18,0.017 µM,Cc1cccc(F)c1N1CCC(N2Cc3cn(C[C@H]4CCN4C(=O)OC(C)C)nc3N(Cc3ccccc3C(F)(F)F)C2=O)CC1 [Example 135]
19,0.163 µM,Cc1cccc(F)c1N1CCC(N2Cc3cn(C4CN(S(C)(=O)=O)C4)nc3N(Cc3ccccc3C(F)(F)F)C2=O)CC1 [Example 136]
20,0.081 µM,Cc1cccc(F)c1N1CCC(N2Cc3cn(C4CN(S(=O)(=O)N(C)C)C4)nc3N(Cc3ccccc3C(F)(F)F)C2=O)CC1 [Example 137]
21,0.011 µM,COc1nccc(C)c1N1CCC(N2Cc3cn(C)nc3N(Cc3ncccc3C(F)(F)F)C2=O)CC1 [Example 138]

row,IC50,SMILES
1,0.018 µM,Cc1cccc(F)c1N1CCC(N2Cc3cn(C4CN(C(=O)OC5COC5)C4)nc3N(Cc3ccccc3C(F)(F)F)C2=O)CC1 [Example 139]
2,0.018 µM,Cc1cccc(F)c1N1CCC(N2Cc3cn(C4CN(C(=O)OC5(C(F)(F)F)COC5)C4)nc3N(Cc3ccccc3C(F)(F)F)C2=O)CC1 [Example 140]
3,0.021 µM,Cc1cccc(F)c1N1CCC(N2Cc3cn(C4CN(C(=O)OC5(C)COC5)C4)nc3N(Cc3ccccc3C(F)(F)F)C2=O)CC1 [Example 141]
4,0.032 µM,Cc1nnc(N2CC(n3cc4c(n3)N(Cc3ccccc3C(F)(F)F)C(=O)N(C3CCN(c5c(C)cccc5F)CC3)C4)C2)o1 [Example 142]
5,0.017 µM,Cc1cccc(F)c1N1CCC(N2Cc3cn(C4CN(c5nnc(C(C)C)o5)C4)nc3N(Cc3ccccc3C(F)(F)F)C2=O)CC1 [Example 143]
6,0.014 µM,Cc1cccc(F)c1N1CCC(N2Cc3cn(C4CN(c5nnc(C(F)(F)F)o5)C4)nc3N(Cc3ccccc3C(F)(F)F)C2=O)CC1 [Example 144]
7,0.032 µM,COc1nccc(C)c1N1CCC(N2Cc3nn(C)nc3N(Cc3ncccc3C(F)(F)F)C2=O)CC1 [Example 146]
8,0.152 µM,Cc1cccc(F)c1N1CCC(N2Cc3cn(C(=O)OC(C)C)nc3N(Cc3ccccc3C(F)(F)F)C2=O)CC1 [Example 147]
9,0.341 µM,Cc1cccc(F)c1N1CCC(N2Cc3cn(C(=O)OCC(C)C)nc3N(Cc3ccccc3C(F)(F)F)C2=O)CC1 [Example 148]
10,0.07 µM,Cc1cccc(F)c1N1CCC(N2Cc3cn(C(=O)N(C)C)nc3N(Cc3ccccc3C(F)(F)F)C2=O)CC1 [Example 149]
11,0.767 µM,Cc1cccc(F)c1N1CCC(N2Cc3cn(C(=O)N(C)CC(C)C)nc3N(Cc3ccccc3C(F)(F)F)C2=O)CC1 [Example 150]
12,0.04 µM,CC(C)=Cn1cc2c(n1)N(Cc1ccccc1C(F)(F)F)C(=O)N(C1CCN(c3c(C)cccc3F)CC1)C2 [Example 153]
13,0.026 µM,C=C(C)Cn1cc2c(n1)N(Cc1ccccc1C(F)(F)F)C(=O)N(C1CCN(c3c(C)cccc3F)CC1)C2 [Example 154]
14,0.025 µM,Cc1cccc(F)c1N1CCC(N2Cc3cn(CC(C)C)nc3N(Cc3ccccc3C(F)(F)F)C2=O)CC1 [Example 155]
15,0.017 µM,Cc1cccc(F)c1N1CCC(N2Cc3cn(C4CNC4=O)nc3N(Cc3ccccc3C(F)(F)F)C2=O)CC1 (centres unmarked) [Example 157]
16,0.011 µM,Cc1cccc(F)c1N1CCC(N2Cc3cn(CC4(C)CC4)nc3N(Cc3ccccc3C(F)(F)F)C2=O)CC1 [Example 158]
17,0.008 µM,Cc1cccc(F)c1N1CCC(N2Cc3cn(CC(F)F)nc3N(Cc3ccccc3C(F)(F)F)C2=O)CC1 [Example 159]
18,0.147 µM,C#CC(C)(C)n1cc2c(n1)N(Cc1ccccc1C(F)(F)F)C(=O)N(C1CCN(c3c(C)cccc3F)CC1)C2 [Example 160]
19,0.007 µM,Cc1cccc(F)c1N1CCC(N2Cc3cn(C(C)C)nc3N(Cc3ccccc3C(F)(F)F)C2=O)CC1 [Example 161]
20,0.013 µM,Cc1cccc(F)c1N1CCC(N2Cc3cn(CC4(F)COC4)nc3N(Cc3ccccc3C(F)(F)F)C2=O)CC1 [Example 164]
21,0.008 µM,Cc1cccc(F)c1N1CCC(N2Cc3cn(CC4CC4)nc3N(Cc3ccccc3C(F)(F)F)C2=O)CC1 [Example 165]

row,IC50,SMILES
1,0.012 µM,Cc1cccc(F)c1N1CCC(N2Cc3cn(CC4(C)COC4)nc3N(Cc3ccccc3C(F)(F)F)C2=O)CC1 [Example 166]
2,0.01 µM,Cc1cccc(F)c1N1CCC(N2Cc3cn(CC4(F)CC4)nc3N(Cc3ccccc3C(F)(F)F)C2=O)CC1 [Example 167]
3,0.006 µM,Cc1cccc(F)c1N1CCC(N2Cc3cn(CC(C)(C)F)nc3N(Cc3ccccc3C(F)(F)F)C2=O)CC1 [Example 168]
4,0.008 µM,CCn1cc2c(n1)N(Cc1ccccc1C(F)(F)F)C(=O)N(C1CCN(c3c(C)cccc3F)CC1)C2 [Example 169]
5,0.017 µM,Cc1cccc(F)c1N1CCC(N2Cc3cn(CC4(O)COC4)nc3N(Cc3ccccc3C(F)(F)F)C2=O)CC1 [Example 171]
6,0.015 µM,Cc1cccc(F)c1N1CCC(N2Cc3cn(C(C)(C)C)nc3N(Cc3ccccc3C(F)(F)F)C2=O)CC1 [Example 173]
7,0.007 µM,Cc1cccc(F)c1N1CCC(N2Cc3cn(C4CC4)nc3N(Cc3ccccc3C(F)(F)F)C2=O)CC1 [Example 174]
8,0.014 µM,Cc1cccc(F)c1N1CCC(N2Cc3nn(C4CC4)cc3N(Cc3ccccc3C(F)(F)F)C2=O)CC1 [Example 175]
9,0.016 µM,Cc1cccc(F)c1N1CCC(N2Cc3nn(CC(C)(C)F)cc3N(Cc3ccccc3C(F)(F)F)C2=O)CC1 [Example 176]
10,0.048 µM,Cc1cccc(F)c1N1CCC(N2Cc3c(cnn3CC(C)(C)F)N(Cc3ccccc3C(F)(F)F)C2=O)CC1 [Example 177]
11,0.016 µM,Cc1cccc(F)c1N1CCC(N2Cc3nn(CC4CC4)cc3N(Cc3ccccc3C(F)(F)F)C2=O)CC1 [Example 178]
12,0.152 µM,Cc1cccc(F)c1N1CCC(N2Cc3c(cnn3CC3CC3)N(Cc3ccccc3C(F)(F)F)C2=O)CC1 [Example 179]
13,0.011 µM,Cc1cccc(F)c1N1CCC(N2Cc3nn(CC4(C)CC4)cc3N(Cc3ccccc3C(F)(F)F)C2=O)CC1 [Example 180]
14,0.05 µM,Cc1cccc(F)c1N1CCC(N2Cc3c(cnn3CC3(C)CC3)N(Cc3ccccc3C(F)(F)F)C2=O)CC1 [Example 181]
15,0.03 µM,CCn1cc2c(n1)CN(C1CCN(c3c(C)cccc3F)CC1)C(=O)N2Cc1ccccc1C(F)(F)F [Example 182]
16,0.022 µM,Cc1cccc(F)c1N1CCC(N2Cc3nn(C(C)(C)C)cc3N(Cc3ccccc3C(F)(F)F)C2=O)CC1 [Example 183]
17,0.009 µM,Cc1cccc(F)c1N1CCC(N2Cc3nn(CC4(F)CC4)cc3N(Cc3ccccc3C(F)(F)F)C2=O)CC1 [Example 184]
18,0.004 µM,Cc1cccc(F)c1N1CCC(N2Cc3nn(C(C)C)cc3N(Cc3ccccc3C(F)(F)F)C2=O)CC1 [Example 191]
19,0.004 µM,C=C(C)n1cc2c(n1)CN(C1CCN(c3c(C)cccc3F)CC1)C(=O)N2Cc1ccccc1C(F)(F)F [Example 192]
20,0.014 µM,Cc1cccc(F)c1N1CCC(N2Cc3c[nH]nc3N(Cc3ncccc3C(F)(F)F)C2=O)CC1 [Example 193]
